Laboratory results as given in patent publication US20200289521A1, “USE OF VITAMIN K IN COMBINATION WITH ANTICOAGULANTS” (KAYDENCE PHARMA AS, priority 2019, published 2020).

How the values were obtained:
[1] = test system: human vascular smooth muscle cells (hVSMCs); assay: ATP measurement in hVSMCs with warfarin and/or vitamin K2 (luminescence); assay type: cell-based; details: 24 hours
Method: This study was performed in order to determine the effect of vitamin K2 (MK-7) on warfarin-induced oxidative stress in muscles. To perform this study, human vascular smooth muscle cells (hVSMCs; 5,000 cells/well) were plated in 96-well dark plates and left to adhere overnight. Next, cells were incubated for 24 hours with either vehicle only (as blank control), warfarin (10 or 50 μM), vitamin K2 (MK-7) (10 μM), or a combination of warfarin (50 μM) and vitamin K2 (MK-7) (10 μM). Hoechst was added to correct for cell number (1 μg/mL). Next, ATP was measured using mammalian lysis buffer for 5 minutes after which 50 μL ATP substrate solution was added to the wells and incubated for 10 minutes in a dark environment. Finally, medium was transferred to a white plate to measure luminescence.

[2] = test system: whole-blood thrombogenicity; assay: T-TAS Total Thrombus-formation Analysis of whole blood from treated TGR rats; assay type: in vivo, transgenic Ren-2 rats [TGR(mREN-2)27]
Method: (§1) This experiment was conducted in order to evaluate the effects of vitamin K2 (MK-7) on the anticoagulant activity of the new oral anticoagulants (NOAC) rivaroxaban and dabigatran using the T-TAS Total Thrombus-formation Analysis System. The T-TAS Total Thrombus-formation Analysis System is a microchip-based flow chamber system capable of evaluating whole-blood thrombogenicity. It is a useful tool in monitoring the efficacy of anticoagulants on thrombus formation and predicting the risk of bleeding complications. To perform the study, 45 wild-type male Sprague-Dawley and 45 transgenic male Ren-2 rats [TGR(mREN-2)27] at the age of 10-11 weeks at the beginning of the treatment period were purchased from animal facility IKEM-CEM Institute of Clinical and Experimental Medicine (Prague, Czech Republic). All animals in the experiment were housed in individually ventilated cages (2-3 rats per cage) and kept in the animal rooms of JCET at a relative humidity of 55±10%, a temperature of 22±2° C., and a light cycle of 7 AM to 7 PM. The rats had free access to food and water. After delivery, animals were randomly divided into 10 experimental groups (5 or 10 rats per group), as indicated below in Table 1. Four days before the start of the treatment, the first part of animals' body weight and food intake was measured in selected representative three cages (rats n=9) to calculate the appropriate amount of tested compounds required for addition to the diet to obtain the dosing indicated in Table 1. It was estimated that food intake was approximately 30 g of chow per rat per day. The animals were fed for two weeks with AIN-93G diet supplemented with rivaroxaban or dabigatran with/without Vitamin K2 (MK-7), as indicated in Table 1. The animals were then anesthetized in order to draw blood samples for further analysis. The body mass of the rats was measured at the beginning and at the end of treatment. At the beginning and at the end of treatment, the food intake per day was measured in representative group of animals to monitor the daily dosing of tested compounds (per kg of body mass). The thrombus formation in vitro was measured in whole blood using a microchip-based flow chamber system according to manufacturers' protocol (Total Thrombus-formation Analyser System, T-TAS; Fujimori Kogyo Co., Ltd., Tokyo, Japan). For the analysis, citrated whole blood (480 μl) was mixed with 20 μl of 300 mM CaCl2 solution containing 1.25 mg/ml CTI (Corn Trypsin Inhibitor). […] The obtained flow pressure pattern for each sample was used to analyze thrombus formation based on the following estimated parameters: […]

[3] = test system: whole-blood thrombogenicity; assay: T-TAS Total Thrombus-formation Analysis of whole blood from treated Sprague-Dawley rats; assay type: in vivo
Method: as §1

VSMCs [4] = assay: Warfarin-induced oxidative stress in VSMCs, effect of vitamin K2 (DCFDA); assay type: cell-based
Method: It is known that the level of reactive oxygen species in cells can be measured by measuring the conversion of 2′,7′-dichlorofluorescein diacetate (DCFDA) to the fluorescent dye 2′,7′-dichlorofluorescein (DCF). The fluorescence generated by cells subjected to DCFDA is directly proportional to the amount of oxidized DCFDA to DCF.
This study was performed to determine if vitamin K2 (MK-7) reduces warfarin-induced oxidative stress. To perform the study, VSMCs (10,000 cells/well) were plated in a 96-well plate and left to adhere overnight. Next, cells were incubated for 24 hours with 100 μM warfarin. The next day, 20 μM DCFDA was added to the cells for 1 hour. The cells were then incubated for 5 hours with normal medium (baseline), vitamin K2 (MK-7), or warfarin. Fluorescence was measured and fluorescence intensity was normalized for cell count.

VSMCs [5] = assay: Hypoxia-induced ATP decrease, co-treatment with CoCl2 (luminescence); assay type: cell-based; details: co-treatment CoCl2 100 μM and 10 μM test substance, 24 hours
Method: This study was performed to investigate whether vitamin K2 (MK-7) can prevent the hypoxia-induced decrease in ATP (CoCl2 treatment, thereby stabilization of HIF1a). To perform this study, VSMCs were co-treated with CoCl2 and vitamin K2 (MK-7).
First, VSCMs (5000 cells/well) were plated in 96-well plates and left to adhere overnight. Next, cells were incubated for 24 hours with either CoCl2 (100 μM) or CoCl2 and vitamin K2 (MK-7) or UQ10 together (100 and 10 μM, respectively). Next, ATP was measured and corrected for cell numbers. CoCl2 values were set as relative to CoCl2 co-treated with vitamin K2 (MK-7) or UQ10. Hoechst was added to correct for cell number (1 μg/mL). Next, ATP was measured using mammalian lysis buffer for 5 minutes after which 50 μL ATP substrate solution was added to the wells and incubated for 10 minutes in a dark environment. Finally, medium was transferred to a white plate to measure luminescence.

Structure (SMILES): CC(C)=CCC/C(C)=C/CC/C(C)=C/CC/C(C)=C/CC/C(C)=C/CC/C(C)=C/CC/C(C)=C/CC1=C(C)C(=O)c2ccccc2C1=O [vitamin K2 (MK-7)]
- cell ATP / ATP generation ([1]; warfarin 10 or 50 μM, vitamin K2 (MK-7) 10 μM): increased cell ATP
- oxidative stress induced by warfarin ([1]; warfarin 50 μM + vitamin K2 (MK-7) 10 μM): counteracted the oxidative stress induced by warfarin
- effect of vitamin K2 (MK-7) on inhibition of thrombus formation by dabigatran and rivaroxaban [2]: did not modify this effect significantly
- increase of occlusion Time (OT) by addition of vitamin K2 (MK-7) ([3]; added to dabigatran and to rivaroxaban): 5-7%
- formation of a clot (AUC) ([3]; vitamin K2 (MK-7) added to dabigatran or rivaroxaban): did not prevent the formation of a clot
- normal oxidative stress (VSMCs [4]; 5 hours incubation, no warfarin): reduced not only normal oxidative stress
- warfarin-induced oxidative stress (VSMCs [4]; 24 hours 100 μM warfarin, then 5 hours incubation): counteracted the warfarin-induced oxidative stress
- hypoxia-induced decrease in ATP generation (VSMCs [5]): could (partially) prevent the decreased ATP generation
